# Results as given in patent US8513271B2, “Pyrimidine compounds as delta opioid receptor modulators” (Janssen Pharmaceutica, NV, priority 2009, dated 2013).
# “And” between values parts separate entries of the source, which are not always exact repeats. Equal values may be shown once. Read-outs that look alike come from different tables or passages of the source.
# Assays:
# delta opioid receptor [1] = biological target: T1, delta opioid receptor (Rattus norvegicus, UniProt P33533); assay: Rat brain delta opioid receptor binding assay; conditions: rat forebrain
# T1 construct: the forebrains were homogenized in Tris buffer in a Teflon®-glass homogenizer; from tissue; host or cells: forebrain of male Wistar rats, particulate (membrane) preparation
# T1 sequence (P33533 whole entry): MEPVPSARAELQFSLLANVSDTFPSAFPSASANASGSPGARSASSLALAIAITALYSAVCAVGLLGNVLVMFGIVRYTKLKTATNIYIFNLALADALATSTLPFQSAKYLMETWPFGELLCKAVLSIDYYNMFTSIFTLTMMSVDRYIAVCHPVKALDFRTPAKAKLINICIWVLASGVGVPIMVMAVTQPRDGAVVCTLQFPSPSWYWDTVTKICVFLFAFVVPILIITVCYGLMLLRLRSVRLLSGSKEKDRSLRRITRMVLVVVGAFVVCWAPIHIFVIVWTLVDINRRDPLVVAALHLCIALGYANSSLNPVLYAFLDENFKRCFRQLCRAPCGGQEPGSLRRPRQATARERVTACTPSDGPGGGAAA
# mu opioid receptor = biological target: T2, mu opioid receptor (Rattus norvegicus, UniProt P33535); assay: Rat brain mu opioid receptor binding assay; conditions: rat forebrain, [3H]DAMGO ligand
# T2 construct: the forebrains were homogenized in Tris buffer in a Teflon®-glass homogenizer; from tissue; host or cells: forebrain of male Wistar rats, particulate (membrane) preparation
# T2 sequence (P33535 whole entry): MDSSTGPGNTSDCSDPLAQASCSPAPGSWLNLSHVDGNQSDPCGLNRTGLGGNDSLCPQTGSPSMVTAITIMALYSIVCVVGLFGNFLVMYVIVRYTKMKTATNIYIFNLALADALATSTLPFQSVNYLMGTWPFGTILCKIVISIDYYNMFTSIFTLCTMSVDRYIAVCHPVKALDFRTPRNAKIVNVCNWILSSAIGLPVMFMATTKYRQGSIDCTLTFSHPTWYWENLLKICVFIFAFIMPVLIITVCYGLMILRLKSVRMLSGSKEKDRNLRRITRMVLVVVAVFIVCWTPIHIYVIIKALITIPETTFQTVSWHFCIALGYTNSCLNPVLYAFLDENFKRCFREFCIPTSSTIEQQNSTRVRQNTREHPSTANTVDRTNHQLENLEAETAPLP
# delta opioid receptor [2] = biological target: T3, delta opioid receptor (Mus musculus, UniProt P32300); assay: [35S]GTPγS binding assay in NG108-15 cell membranes (delta opioid functional assay), 200 nM screen; type: biochemical
# T3 construct: NG108-15 cell membranes were purchased from Applied Cell Sciences (Rockville, Md.); host or cells: NG108-15 cell membranes
# T3 sequence (P32300 whole entry): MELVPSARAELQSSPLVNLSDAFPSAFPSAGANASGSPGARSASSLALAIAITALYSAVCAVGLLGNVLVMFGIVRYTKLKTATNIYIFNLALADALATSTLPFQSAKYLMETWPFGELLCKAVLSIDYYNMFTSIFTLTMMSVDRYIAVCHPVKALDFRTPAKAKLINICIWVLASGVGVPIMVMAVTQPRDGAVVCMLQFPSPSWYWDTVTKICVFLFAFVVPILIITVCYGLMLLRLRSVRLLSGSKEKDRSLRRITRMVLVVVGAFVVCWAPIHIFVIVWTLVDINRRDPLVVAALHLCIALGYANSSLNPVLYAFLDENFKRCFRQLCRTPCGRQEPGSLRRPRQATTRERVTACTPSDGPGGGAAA
# [3] = [3H]DPDPE ligand, read-out: δ-binding (DPDPE ligand) Ki
# [4] = δ-binding (Naltrindole ligand) Ki, [3H]naltrindole ligand
# [5] = [3H]naltrindole ligand, read-out: δ-binding (Naltrindole ligand) Ki
SMILES,Ki (mu opioid receptor; read-out: μ-binding Ki) [nM],Ki (delta opioid receptor [1]; [4]) [nM],other results
COc1ccc(Oc2nc(-c3ccc(OC)cc3)ncc2NC[C@@H]2CCCN2)cc1 [Cpd 1],3230,,Ki (delta opioid receptor [1]; [3]): 363 nM
COc1ccc(Oc2nc(-c3ccccc3)ncc2NC[C@@H]2CCCN2)cc1 [Cpd 2],,33,"Ki (delta opioid receptor [1]; δ-binding (DPDPE ligand) Ki, [3H]DPDPE ligand): 20 nM; Ki (mu opioid receptor; μ-binding Ki): 3140 nM and 3390 nM; EC50 (delta opioid receptor [2]; GTPγS δ-opioid receptor EC50 (μM), NG108-15 cell membranes, averages if tested more than once): 0.43 µM and 0.069 µM; inhibition at 10 µM (delta opioid receptor [2]; read-out: GTPγS δ-opioid receptor % Inh @10 μM): 5.79%; GTPγS δ-opioid receptor Rel Efficacy (delta opioid receptor [2]; relative efficacy from dose response, NG108-15 cell membranes): 0.733"
COc1ccc(Oc2nc(-c3cccc(OC)c3)ncc2NC[C@@H]2CCCN2)cc1 [Cpd 3],2340,,Ki (delta opioid receptor [1]; [3]): 142 nM
COc1ccc(Oc2nc(-c3ccccc3OC)ncc2NC[C@@H]2CCCN2)cc1 [Cpd 4],> 10000,,Ki (delta opioid receptor [1]; [3]): 2220 nM
COc1ccc(Oc2nc(-c3ccc4ccccc4c3)ncc2NC[C@@H]2CCCN2)cc1 [Cpd 6],9010,,Ki (delta opioid receptor [1]; [5]): 116 nM
COc1ccc(Oc2nc(-c3ccsc3)ncc2NC[C@@H]2CCCN2)cc1 [Cpd 9],2970,,Ki (delta opioid receptor [1]; [5]): 1 nM
COc1ccc(Oc2nc(-c3ccoc3)ncc2NC[C@@H]2CCCN2)cc1 [Cpd 10],2000,34,
FC(F)(F)Oc1ccc(Oc2nc(-c3cccnc3)ncc2NC[C@@H]2CCCN2)cc1 [Cpd 11],3080,5,
NC(=O)c1ccc(Oc2nc(-c3cccnc3)ncc2NC[C@@H]2CCCN2)cc1 [Cpd 12],4520,18,
CC(=O)Nc1ccc(Oc2nc(-c3cccnc3)ncc2NC[C@@H]2CCCN2)cc1 [Cpd 13],5570,,Ki (delta opioid receptor [1]; [5]): 2 nM
c1ccc(Oc2nc(-c3cccnc3)ncc2NC[C@@H]2CCCN2)cc1 [Cpd 14],1730,1,
COc1ccc(Oc2nc(-c3cccc(O)c3)ncc2NC[C@@H]2CCCN2)cc1 [Cpd 15],416,0.1,
COc1ccc(Oc2nc(-c3cccc4ncccc34)ncc2NC[C@@H]2CCCN2)cc1 [Cpd 16],1320,14,
COc1ccc(Oc2nc(-c3cccc4cccnc34)ncc2NC[C@@H]2CCCN2)cc1 [Cpd 17],3080,30,
COc1ccc(Oc2nc(-c3cccc4nc(C)ccc34)ncc2NC[C@@H]2CCCN2)cc1 [Cpd 18],2240,,Ki (delta opioid receptor [1]; [5]): 172 nM
COc1ccc(Oc2nc(-c3ccc(-c4ccccc4)cc3)ncc2NC[C@@H]2CCCN2)cc1 [Cpd 19],8080,,Ki (delta opioid receptor [1]; [5]): 201 nM

SMILES,Ki (mu opioid receptor; read-out: μ-binding Ki) [nM],Ki (delta opioid receptor [1]; [4]) [nM],other results
COc1ccc(Oc2nc(-c3ccc4sc5ccccc5c4c3)ncc2NC[C@@H]2CCCN2)cc1 [Cpd 21],2390,,Ki (delta opioid receptor [1]; [5]): 201 nM
COc1ccc(Oc2nc(-c3cnc(O)nc3O)ncc2NC[C@@H]2CCCN2)cc1 [Cpd 27],15500,,Ki (delta opioid receptor [1]; [5]): 2570 nM
COc1ccc(Oc2nc(-c3cccc(C#N)c3)ncc2NC[C@@H]2CCCN2)cc1 [Cpd 28],295,6.1,
COc1ccc(Oc2nc(-c3cccc([N+](=O)[O-])c3)ncc2NC[C@@H]2CCCN2)cc1 [Cpd 29],2660,86,
COc1ccc(Oc2nc(-c3cccc(C(N)=O)c3)ncc2NC[C@@H]2CCCN2)cc1 [Cpd 30],1090,3,
CCN(CC)C(=O)c1cccc(-c2ncc(NC[C@@H]3CCCN3)c(Oc3ccc(OC)cc3)n2)c1 [Cpd 31],837,31,
COc1ccc(Oc2nc(-c3cccc(S(C)(=O)=O)c3)ncc2NC[C@@H]2CCCN2)cc1 [Cpd 32],,12.6,Ki (mu opioid receptor; μ-binding Ki): 64.1 nM
COc1ccc(Oc2nc(-c3ccc(O)cc3)ncc2NC[C@@H]2CCCN2)cc1 [Cpd 33],,29,Ki (mu opioid receptor; μ-binding Ki): 29 nM
COc1ccc(Oc2nc(-c3ccc4[nH]ccc4c3)ncc2NC[C@@H]2CCCN2)cc1 [Cpd 34],,15,Ki (mu opioid receptor; μ-binding Ki): 15 nM
"COc1ccc(Oc2nc(-c3noc(=O)[nH]3)ncc2NC[C@@H]2CCCN2)cc1 [Cpd 35, 3-{4-(4-Methoxy-phenoxy)-5-[(pyrrolidin-2-(S)-ylmethyl)-amino]-pyrimidin-2-yl}-4H-[1,2,4]oxadiazol-5-one]",184,,Ki (delta opioid receptor [1]; [5]): 184 nM
Fc1ccc(Oc2nc(-c3cccnc3)ncc2NC[C@@H]2CCCN2)cc1 [Cpd 36],4770,3,
COc1ccc(-c2ncc(NC[C@@H]3CCCN3)c(Oc3ccc(F)cc3)n2)cn1 [Cpd 37],> 10000,10,
COc1ccc(Oc2nc(-c3cccc(F)c3)ncc2NC[C@@H]2CCCN2)cc1 [Cpd 38],4910,1,
COc1ccc(-c2ncc(NC[C@@H]3CCCN3)c(Oc3ccccc3OC)n2)cn1 [Cpd 39],8990,67,
COc1ccccc1Oc1nc(-c2cccnc2)ncc1NC[C@@H]1CCCN1 [Cpd 40],7640,93,
COc1ccc(Oc2nc(-c3cccc(NC(C)=O)c3)ncc2NC[C@@H]2CCCN2)cc1 [Cpd 42],1230,16,
